Laboratory results taken from US20230097553A1 (priority 2020, published 2023).
Where “and” joins values, the source holds several entries; their conditions need not be identical. Equal entries are not always repeated. Where two headings read alike, the source gives them in different places.

Columns and labels:
Ebola virus replicon = assay: microbe, parasite or virus in culture; type: cell-based; conditions: for IC50: Zaire ebolavirus
[1] = tested on: avian influenza virus A/GuangZhou/99 (H9N2); assay: organism not typed; type: cell-based
[2] = tested on: 2019-nCoV (2019BetaCoV/Wuhan/WIV04/2019 strain); assay: microbe, parasite or virus in culture; type: cell-based
COVID-19 [3] = assay: Compassionate use in large-scale (132 cases) COVID-19 patients; type: in vivo, human; conditions: patients who took leflunomide within 18 days of admission
COVID-19 [4] = assay: Compassionate use in small-scale (10 cases) COVID-19 patients; type: in vivo, human
[5] = Drug toxicity by CellTiter-Glo (CC50), 2019-nCoV host cells; conditions: African green monkey, Vero E6 cells
in vitro = conditions: Syrian hamster
MDCK cells = conditions: dog
[6] = Antiviral activity in combination with other antiviral drugs; conditions: combined with lopinavir, ritonavir, ribavirin, remdesivir, oseltamivir, tamiflu, lanimivir, peramivir, chloroquine
[7] = tested on: influenza virus A/WSN/33 (H1N1); set-up: species or system BALB/c female mice; conditions: mouse, in vivo
[8] = Severe acute respiratory syndrome coronavirus 2, Vero C1008, 48 h

Cc1oncc1C(=O)Nc1ccc(C(F)(F)F)cc1 [Leflunomide, leflunomide]
SI (Ebola virus replicon): 10.66 | IC50 (Ebola virus replicon; BSR-T7/5, 24 h): 15.3 µM | SI [1]: 8.58 | IC50 ([1]; MDCK): 8.12 µM | SI [2]: 21.19 | IC50 [2, 8]: 41.5 µM | time from taking leflunomide (LEF) to negative conversion (VC), median (COVID-19 [3]): 6.5 days | time from admission (AD) to negative conversion (VC), median (COVID-19 [3]; control group median 25 days): 16 days | Time to negative conversion after treatment (COVID-19 [4]; leflunomide experimental group, Number of Patients 1): 4 days | Time to negative conversion after treatment (COVID-19 [4]; leflunomide experimental group, Number of Patients 3): 8 days | Time to negative conversion after treatment (COVID-19 [4]; leflunomide experimental group, Number of Patients 4): 5 days | CRP after treatment (COVID-19 [4]; leflunomide experimental group, n = 5, range (5-5), normal 0-10, P value 0.109 vs before): 5 mg/L | CRP before treatment (COVID-19 [4]; leflunomide experimental group, n = 5, range (7.8-120.6), normal 0-10): 37.4 mg/L | level of C-reactive protein (COVID-19 [4]; small-scale (10 cases), after leflunomide treatment): significantly reduced | time to negative conversion (median) (COVID-19 [4]; small-scale (10 cases), control group median 11 days, P=0.046): 5 days | CC50 at 72 h [5]: 879 µM | CC50 (in vitro): 163 µM | CC50 (MDCK cells): 69.6 µM | therapeutic effects in combination with other antiviral drugs [6]: better therapeutic effects | mice rescued from death [7]: 50% and 100%

C/C(O)=C(\C#N)C(=O)Nc1ccc(C(F)(F)F)cc1 [Teriflunomide, teriflunomide]
SI (Ebola virus replicon): 32.26 | IC50 (Ebola virus replicon; BSR-T7/5, 24 h): 3.41 µM | IC50 (Ebola virus replicon; BSR-T7/5, read-out: drug concentration at which inhibitory efficiency on virus replication reaches 50%): 0.923 µg/mL | SI [1]: 53.13 | IC50 ([1]; MDCK): 3.36 µM | IC50 ([1]; unidentified influenza virus, H9N2, MDCK, read-out: drug concentration at which inhibitory efficiency on virus replication reaches 50%): 0.9 µg/mL | SI [2]: 141.75 | IC50 [2, 8]: 6 µM | IC50 ([2]; Severe acute respiratory syndrome coronavirus 2, Vero C1008, read-out: drug concentration at which inhibitory efficiency on virus replication reaches 50%): 1.62 µg/mL | CC50 (in vitro): 110 µM
